Assay [1] relates to healthy human neonatal fibroblasts. In words: Spheroid culture of healthy human neonatal fibroblasts in coated 96-well round-bottom vessel, microscope observation. It is filed as cell-based. Conditions: PS 96-well round-bottom vessel coated with 0.125% solution; 4×10^4 cells/well. The protocol: To observe the spheroid formation and stem cell induction in healthy human neonatal fibroblasts over time, culture was performed by using a 96-well round-bottom culture vessel. An aqueous solution of the polypeptide represented by formula (1) (0.125%) (cell culture supplement) was added to a commercial polystyrene-made 96-well round-bottom culture vessel (Nunclon Delta 96U Bottom, Thermo Fisher Scientific) at 100 μL/well and allowed to stand at 4° C. for 24 hours. Thereafter, the excess cell culture supplement was removed, and the remaining solution was dried in a dryer at 37° C. for 96 hours to complete coating treatment with the cell culture supplement. Fibroblasts were maintained and cultured in a serum-free medium (Promo Cell; fibroblast basal medium, basic-FGF 5 ng/ml and insulin 2.5 μg/mL). The fibroblasts floating in the medium were seeded in the culture vessel coated with the cell culture supplement at 4×10^4 cells/well/100 μL and cultured at 37° C. under 5% CO2 conditions.

The next assay has as its system HOS-143B cells. In words: Inhibition of induction of apoptosis, Caspase-3/7 activity assay in spheroids. Conditions: U- and V-bottom 96-well plates coated with 0.5% solution diluted 4-fold and 8-fold; day 3 and day 6; concentration-dependent, more pronounced on day 6. It is filed as cell-based, human. As for the experimental part: An aqueous solution of the polypeptide represented by formula (1) was added in two different concentrations (prepared by diluting a 0.5% solution 4-fold and 8-fold) at 100 μL/well and 200 μL/well respectively to two 96-well cell culture plates with different bottom shapes (plate #163320 with a U-shaped bottom; Corning, NY, USA, and plate #277143 with a V-shaped bottom; Thermo Fisher Scientific, MA, USA) and allowed to stand overnight at 4° C. Thereafter, the excess cell culture supplement was removed, and the remaining solution was dried in a clean bench for about 6 hours to complete the treatment with the cell culture supplement. […] After three days and six days, the apoptosis activity per well was measured by using a Caspase activity assay kit (Apo-ONE Homogeneous Caspase-3/7 Assay kit; Promega, WI, USA). […] Thereafter, 100 μL of the culture fluid was transferred to a black 96-well cell culture plate (#237105; Thermo Fisher Scientific, MA, USA), and the value of fluorescence at 590 nm (excitation light at 560 nm) was measured with a plate reader. The value determined by subtracting the value for reagent-only with no cells (blank value) from a measured value was considered to be the measured value for each day of culture, and the values compared to those of the plate not coated with the aqueous solution of the polypeptide represented by formula (1) (control) were plotted.

In assay [2] the test system is HOS-143 cells (human osteosarcoma cells). Description: Three-dimensional spheroid culture of cancer cells, microscope observation. Type of assay: cell-based. Conditions: 6-well flat-bottom vessel coated with 0.125% solution; DMEM + 10% FBS; day 4 to day 15. As for the experimental part: (§1) Method 2 mL of an aqueous solution of the polypeptide represented by formula (1) (0.125%) (cell culture supplement) was added to a commercial polystyrene-made 6-well flat-bottom culture vessel (CellBIND, Corning) and allowed to stand at 4° C. for 24 hours.
(§2) The cell culture supplement solution was then removed and the coated cell culture supplement was dried in a dryer at 37° C. for 96 hours to complete the cell culture supplement coating process. For human cancer cells, common cancer cell lines, A549 cells (human lung cancer cells, ATCC CCL-185, carcinoma), ES2 cells (human ovarian cancer cells, ATCC CRL-1978, clear cell carcinoma), and HOS-143 cells (human osteosarcoma cells, ATCC CRL-8303, osteosarcoma), were used. Each type of cancer cells was seeded in the culture vessel at 2×10^5 cells/well/[…] and cultured at 37° C. under 5% CO2. The medium for use was a DMEM medium supplemented with 10% FBS and penicillin/streptomycin. For a control, cancer cells were seeded in the same type of culture vessel that was not coated with the cell culture supplement at […]. Observation was performed with a microscope on day 4 and day 15 after the start of culture to capture images of spheroid formation (FIG. 18).

In assay [3] the test system is ES2 cells (human ovarian cancer cells). The assay is described as above. It is filed as cell-based. The conditions noted are these: 6-well flat-bottom vessel coated with 0.125% solution; DMEM + 10% FBS; day 4 to day 15. As for the experimental part: as §1, §2
Assay [4] relates to A549 cells (human lung cancer cells). The assay is described as above. It is filed as cell-based. Conditions: 6-well flat-bottom vessel coated with 0.125% solution; DMEM + 10% FBS; day 4 to day 15. The protocol:
as §1, §2

In assay [5] the test system is healthy human neonatal fibroblasts. Description: Spheroid culture of healthy human neonatal fibroblasts in coated 6-well flat-bottom vessel, microscope observation. Conditions: PS 6-well flat-bottom vessel coated with 0.125% solution; day 2 to day 20; uncoated control adhered and grew 2D. Type of assay: cell-based. The protocol:
2 mL of an aqueous solution of the polypeptide represented by formula (1) (0.125%) (cell culture supplement) was added to a commercial polystyrene-made 6-well flat-bottom culture vessel (CellBIND, Corning) and allowed to stand at 4° C. for 24 hours.
Thereafter, the excess cell culture supplement was removed, and the remaining solution was dried in a dryer at 37° C. for 96 hours to complete coating treatment with the cell culture supplement. Healthy human neonatal fibroblasts (ATCC PCS-201-010, primary dermal fibroblasts, neonatal, referred to as “fibroblasts” below) were maintained and cultured in a serum-free medium (Promo Cell; fibroblast basal medium, basic-FGF 5 ng/mb and insulin 2.5 μg/mL). The fibroblasts floating in 2 mL of the medium were seeded in the culture vessel coated with the cell culture supplement at 2×10^6 cells/well and cultured at 37° C. under 5% CO2 conditions. For a control, fibroblasts were seeded in a culture vessel of the same type with no coating applied with the cell culture supplement (2×10^6 cells/well). Observation was performed with a microscope on day 2 and day 20 after the start of culture to capture images of spheroid formation (FIG. 5).

Take “(Pro-Hyp-Gly)n [cell culture supplement]”: the spheroid formation entry in assay [1] is given as “formed a single spheroid”; in assay [2] it was “form spheroids”; in assay [3] it was “form spheroids”; in assay [4] it was “form spheroids”; in assay [5] it was “formed spheroids”. For the same substance, the “apoptosis (Caspase-3/7 activity) compared with uncoated plate” value with HOS-143B cells is “inhibited”.

These data come from patent publication US20240294881A1, “CELL CULTURE SUPPLEMENT FOR PRODUCING STEM CELLS, AND METHOD FOR PRODUCING STEM CELLS” (OPTICELL, INC, priority 2021, published 2024).
